Data as given in the supplement of paper PMC10307832.

Key:
Assay in all cases: relative viability (nuclei count vs DMSO), 5 days (fraction); higher = more cells survive
Sulindac + Pemetrexed = compound: CC1=C(CC(=O)O)c2cc(F)ccc2/C1=C\c1ccc([S+](C)[O-])cc1 [Sulindac] + Nc1nc2[nH]cc(CCc3ccc(C(=O)N[C@@H](CCC(=O)O)C(=O)O)cc3)c2c(=O)[nH]1 [Pemetrexed] (partner 0.2 µM)
Summary of the method: (§1)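 Values are medians from duplicate plates. Each reflects relative viability, defined as the nuclei count of treated wells over that of vehicle wells. Lung cancer cell lines in 1536-well plates were pin-tool dosed one day after seeding with one drug alone or with a fixed anchor-drug dose plus five library-drug doses (not always all listed) in √10 steps, then fixed, stained and imaged at 4× after 5 days.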

[1] = compound: CN[C@@H]1C[C@H]2O[C@@](C)([C@@H]1OC)n1c3ccccc3c3c4c(c5c6ccccc6n2c5c31)C(=O)NC4 [Staurosporine] + COc1cc2c(Oc3ccc(NC(=O)C4(C(=O)Nc5ccc(F)cc5)CC4)cc3F)ccnc2cc1OCCCN1CCOCC1 [Foretinib] (partner 0.25 µM)
Summary of the method: as §1

[2] = compound: CN[C@@H]1C[C@H]2O[C@@](C)([C@@H]1OC)n1c3ccccc3c3c4c(c5c6ccccc6n2c5c31)C(=O)NC4 [Staurosporine] + CS(=O)(=O)N1CCN(Cc2cc3nc(-c4cccc5[nH]ncc45)nc(N4CCOCC4)c3s2)CC1 [Pictilisib] (partner 1 µM)
Summary of the method: as §1

[3] = compound: O=c1[nH]cc(F)c(=O)[nH]1 [5-Fluorouracil] + Cc1nc(NC(=O)N2CCC[C@H]2C(N)=O)sc1-c1ccnc(C(C)(C)C(F)(F)F)c1 [Alpelisib] (partner 2 µM)
Summary of the method: as §1

Cell Line: 201T
- relative viability (Sulindac + Pemetrexed; first compound 0.08 µM): 0.329
- relative viability (Sulindac + Pemetrexed; first compound 0.253 µM): 0.325
- relative viability (Sulindac + Pemetrexed; first compound 0.8 µM): 0.339
- relative viability (Sulindac + Pemetrexed; first compound 2.53 µM): 0.323
- relative viability (Sulindac + Pemetrexed; first compound 8 µM): 0.366
- relative viability ([1]; first compound 0.005 µM): 0.881
- relative viability ([1]; first compound 0.01581 µM): 0.896
- relative viability ([1]; first compound 0.05 µM): 0.518
- relative viability ([1]; first compound 0.1581 µM): 0.314
- relative viability ([1]; first compound 0.5 µM): 0.159
- relative viability ([2]; first compound 0.005 µM): 0.595
- relative viability ([2]; first compound 0.01581 µM): 0.451
- relative viability ([2]; first compound 0.05 µM): 0.551
- relative viability ([2]; first compound 0.1581 µM): 0.463
- relative viability ([2]; first compound 0.5 µM): 0.42
- relative viability ([3]; first compound 0.02 µM): 0.979
- relative viability ([3]; first compound 0.2 µM): 0.873
- relative viability ([3]; first compound 0.6325 µM): 0.325
- relative viability ([3]; first compound 2 µM): 0.332

Cell Line: A549
- relative viability ([1]; first compound 0.005 µM): 0.675
- relative viability ([1]; first compound 0.01581 µM): 0.268
- relative viability ([1]; first compound 0.05 µM): 0.297
- relative viability ([1]; first compound 0.1581 µM): 0.0276
- relative viability ([1]; first compound 0.5 µM): 0.0246
- relative viability ([2]; first compound 0.005 µM): 0.259
- relative viability ([2]; first compound 0.01581 µM): 0.0929
- relative viability ([2]; first compound 0.05 µM): 0.0679
- relative viability ([2]; first compound 0.1581 µM): 0.061
- relative viability ([2]; first compound 0.5 µM): 0.0434
- relative viability ([3]; first compound 0.02 µM): 0.587
- relative viability ([3]; first compound 0.2 µM): 0.476
- relative viability ([3]; first compound 0.6325 µM): 0.256
- relative viability ([3]; first compound 2 µM): 0.113

Cell Line: A-427
- relative viability (Sulindac + Pemetrexed; first compound 0.08 µM): 1.01
- relative viability (Sulindac + Pemetrexed; first compound 0.253 µM): 1
- relative viability (Sulindac + Pemetrexed; first compound 0.8 µM): 0.816
- relative viability (Sulindac + Pemetrexed; first compound 2.53 µM): 0.956
- relative viability (Sulindac + Pemetrexed; first compound 8 µM): 1.1
- relative viability ([1]; first compound 0.005 µM): 1.06
- relative viability ([1]; first compound 0.01581 µM): 0.78
- relative viability ([1]; first compound 0.05 µM): 0.282
- relative viability ([1]; first compound 0.1581 µM): 0.198
- relative viability ([1]; first compound 0.5 µM): 0.121
- relative viability ([2]; first compound 0.005 µM): 0.524
- relative viability ([2]; first compound 0.01581 µM): 0.335
- relative viability ([2]; first compound 0.05 µM): 0.329
- relative viability ([2]; first compound 0.1581 µM): 0.103
- relative viability ([2]; first compound 0.5 µM): 0.106
- relative viability ([3]; first compound 0.02 µM): 1.06
- relative viability ([3]; first compound 0.2 µM): 1.12
- relative viability ([3]; first compound 0.6325 µM): 0.957

Cell Line: ABC-1
- relative viability ([1]; first compound 0.005 µM): 0.394
- relative viability ([1]; first compound 0.01581 µM): 0.367
- relative viability ([1]; first compound 0.05 µM): 0.249
- relative viability ([1]; first compound 0.1581 µM): 0.269
- relative viability ([1]; first compound 0.5 µM): 0.151
- relative viability ([2]; first compound 0.005 µM): 0.256
- relative viability ([2]; first compound 0.01581 µM): 0.164
- relative viability ([2]; first compound 0.05 µM): 0.112
- relative viability ([2]; first compound 0.1581 µM): 0.0906
- relative viability ([2]; first compound 0.5 µM): 0.0638
- relative viability ([3]; first compound 0.02 µM): 1.11
- relative viability ([3]; first compound 0.2 µM): 1.16
- relative viability ([3]; first compound 0.6325 µM): 0.896
- relative viability ([3]; first compound 2 µM): 0.92

Cell Line: BEN
- relative viability (Sulindac + Pemetrexed; first compound 0.08 µM): 0.816
- relative viability (Sulindac + Pemetrexed; first compound 0.253 µM): 0.757
- relative viability (Sulindac + Pemetrexed; first compound 0.8 µM): 0.698
- relative viability (Sulindac + Pemetrexed; first compound 2.53 µM): 0.706
- relative viability (Sulindac + Pemetrexed; first compound 8 µM): 0.998
- relative viability ([1]; first compound 0.005 µM): 0.688
- relative viability ([1]; first compound 0.01581 µM): 0.418
- relative viability ([1]; first compound 0.05 µM): 0.248
- relative viability ([1]; first compound 0.1581 µM): 0.221
- relative viability ([1]; first compound 0.5 µM): 0.187
- relative viability ([2]; first compound 0.005 µM): 0.836
- relative viability ([2]; first compound 0.01581 µM): 0.612
- relative viability ([2]; first compound 0.05 µM): 0.474
- relative viability ([2]; first compound 0.1581 µM): 0.251
- relative viability ([2]; first compound 0.5 µM): 0.204
- relative viability ([3]; first compound 0.02 µM): 0.987
- relative viability ([3]; first compound 0.2 µM): 0.873
- relative viability ([3]; first compound 0.6325 µM): 0.657
- relative viability ([3]; first compound 2 µM): 0.692

Cell Line: CAL-12T
- relative viability (Sulindac + Pemetrexed; first compound 0.08 µM): 1.18
- relative viability (Sulindac + Pemetrexed; first compound 0.253 µM): 1.1
- relative viability (Sulindac + Pemetrexed; first compound 0.8 µM): 1.24
- relative viability (Sulindac + Pemetrexed; first compound 2.53 µM): 1.14
- relative viability (Sulindac + Pemetrexed; first compound 8 µM): 1.44
- relative viability ([1]; first compound 0.005 µM): 0.523
- relative viability ([1]; first compound 0.01581 µM): 0.319
- relative viability ([1]; first compound 0.05 µM): 0.186
- relative viability ([1]; first compound 0.1581 µM): 0.168
- relative viability ([1]; first compound 0.5 µM): 0.121
- relative viability ([2]; first compound 0.005 µM): 0.303
- relative viability ([2]; first compound 0.01581 µM): 0.0968
- relative viability ([2]; first compound 0.05 µM): 0.135
- relative viability ([2]; first compound 0.1581 µM): 0.19
- relative viability ([2]; first compound 0.5 µM): 0.218
- relative viability ([3]; first compound 0.02 µM): 1.47
- relative viability ([3]; first compound 0.2 µM): 1.22
- relative viability ([3]; first compound 0.6325 µM): 1.02
- relative viability ([3]; first compound 2 µM): 0.425

Cell Line: COR-L23
- relative viability (Sulindac + Pemetrexed; first compound 0.08 µM): 0.177
- relative viability (Sulindac + Pemetrexed; first compound 0.253 µM): 0.202
- relative viability (Sulindac + Pemetrexed; first compound 0.8 µM): 0.206
- relative viability (Sulindac + Pemetrexed; first compound 2.53 µM): 0.192
- relative viability (Sulindac + Pemetrexed; first compound 8 µM): 0.204
- relative viability ([1]; first compound 0.005 µM): 0.513
- relative viability ([1]; first compound 0.01581 µM): 0.459
- relative viability ([1]; first compound 0.05 µM): 0.376
- relative viability ([1]; first compound 0.1581 µM): 0.119
- relative viability ([1]; first compound 0.5 µM): 0.0927
- relative viability ([2]; first compound 0.005 µM): 0.32
- relative viability ([2]; first compound 0.01581 µM): 0.148
- relative viability ([2]; first compound 0.05 µM): 0.127
- relative viability ([2]; first compound 0.1581 µM): 0.0645
- relative viability ([2]; first compound 0.5 µM): 0.0442
- relative viability ([3]; first compound 0.02 µM): 0.862
- relative viability ([3]; first compound 0.2 µM): 0.661
- relative viability ([3]; first compound 0.6325 µM): 0.491
- relative viability ([3]; first compound 2 µM): 0.209

Cell Line: COR-L 105
- relative viability (Sulindac + Pemetrexed; first compound 0.08 µM): 1.31
- relative viability (Sulindac + Pemetrexed; first compound 0.253 µM): 1.14
- relative viability (Sulindac + Pemetrexed; first compound 0.8 µM): 0.979
- relative viability (Sulindac + Pemetrexed; first compound 2.53 µM): 1.21
- relative viability (Sulindac + Pemetrexed; first compound 8 µM): 1.2
- relative viability ([1]; first compound 0.005 µM): 0.439
- relative viability ([1]; first compound 0.01581 µM): 0.389
- relative viability ([1]; first compound 0.05 µM): 0.322
- relative viability ([1]; first compound 0.1581 µM): 0.341
- relative viability ([1]; first compound 0.5 µM): 0.231
- relative viability ([2]; first compound 0.005 µM): 0.303
- relative viability ([2]; first compound 0.01581 µM): 0.223
- relative viability ([2]; first compound 0.05 µM): 0.242
- relative viability ([2]; first compound 0.1581 µM): 0.26
- relative viability ([2]; first compound 0.5 µM): 0.556
- relative viability ([3]; first compound 0.02 µM): 0.725
- relative viability ([3]; first compound 0.2 µM): 1.11
- relative viability ([3]; first compound 0.6325 µM): 0.874
- relative viability ([3]; first compound 2 µM): 0.449

Cell Line: Calu-6
- relative viability ([1]; first compound 0.005 µM): 0.75
- relative viability ([1]; first compound 0.01581 µM): 0.456
- relative viability ([1]; first compound 0.05 µM): 0.254
- relative viability ([1]; first compound 0.1581 µM): 0.0642
- relative viability ([1]; first compound 0.5 µM): 0.0391
- relative viability ([2]; first compound 0.005 µM): 0.584
- relative viability ([2]; first compound 0.01581 µM): 0.298
- relative viability ([2]; first compound 0.05 µM): 0.222
- relative viability ([2]; first compound 0.1581 µM): 0.0573
- relative viability ([2]; first compound 0.5 µM): 0.0441
- relative viability ([3]; first compound 0.02 µM): 1.03
- relative viability ([3]; first compound 0.2 µM): 0.976
- relative viability ([3]; first compound 0.6325 µM): 0.684
- relative viability ([3]; first compound 2 µM): 0.448
